The assay has as its system L1210 leukemia ip in BDF1 mice, survival T/C. Description: NCI In Vivo Anticancer Drug Screen. Data for tumor model L1210 Leukemia (intraperitoneal) in B6D2F1 (BDF1) mice. As to conditions: endpoint: mean survival time, higher = longer survival. In outline:
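Tumor was transplanted into mice, which were then dosed with test compound or vehicle alone. Survival was recorded for each group, and the treated figure was expressed relative to the control figure.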

Where [1] appears, read: dose: 100.0 mg/kg/injection, schedule: Q01DX001 (ip), vehicle: saline.
[2] abbreviates: dose: 200.0 mg/kg/injection, schedule: Q01DX001 (ip), vehicle: saline.
The mark [3] stands for this setting: dose: 100.0 mg/kg/injection, schedule: Q04DX003 (ip), vehicle: Klucel (hydroxypropylcellulose) (HPC).
Where [4] appears, read: dose: 200.0 mg/kg/injection, schedule: Q04DX003 (ip), vehicle: Klucel (hydroxypropylcellulose) (HPC).
Where [5] appears, read: dose: 400.0 mg/kg/injection, schedule: Q04DX003 (ip), vehicle: Klucel (hydroxypropylcellulose) (HPC).
The mark [6] stands for this setting: dose: 100.0 mg/kg/injection, schedule: Q04DX002 (ip), vehicle: saline with Tween-80.
[7] abbreviates: dose: 25.0 mg/kg/injection, schedule: Q01DX009 (ip), vehicle: water.
Where [8] appears, read: dose: 50.0 mg/kg/injection, schedule: Q01DX009 (ip), vehicle: water.
[9] abbreviates: dose: 100.0 mg/kg/injection, schedule: Q01DX009 (ip), vehicle: water.
Where [10] appears, read: dose: 200.0 mg/kg/injection, schedule: Q01DX009 (ip), vehicle: water.
Setting [11] is: dose: 400.0 mg/kg/injection, schedule: Q01DX001 (ip), vehicle: saline.
Where [12] appears, read: dose: 100.0 mg/kg/injection, schedule: Q04DX003 (ip), vehicle: saline.
Setting [13] is: dose: 100.0 mg/kg/injection, schedule: Q01DX009 (ip), vehicle: saline with Tween-80.
The mark [14] stands for this setting: dose: 200.0 mg/kg/injection, schedule: Q01DX009 (ip), vehicle: saline with Tween-80.
Where [15] appears, read: dose: 100.0 mg/kg/injection, schedule: Q04DX003 (ip), vehicle: saline with Tween-80.
Where [16] appears, read: dose: 200.0 mg/kg/injection, schedule: Q04DX003 (ip), vehicle: saline with Tween-80.
[17] abbreviates: dose: 100.0 mg/kg/injection, schedule: Q01DX009 (ip), vehicle: saline.

Where “and” joins values, the source holds several entries; their conditions need not be identical. Equal values may be shown once. Toxic doses and inconclusive results are not listed. Square brackets hold non-standard residues; d marks the D form. Peptide text beside a SMILES is read from it. * marks the point of attachment. Cbz = O=C(OCc1ccccc1)*; Abu = CC[CH](N)C(=O)O; OBn = c1ccc(CO*)cc1

Here are results for 20 compounds from PubChem BioAssay AID248 (DTP/NCI, 2004).

As for `O=c1[nH]c(=O)n(C2OC(CO)C(O)C2O)cc1CCC(F)(F)F` (centres undefined), the T/C was 94 % of control (dose: 50.0 mg/kg/injection, schedule: Q01DX005 (ip), vehicle: saline); 109 % of control (dose: 100.0 mg/kg/injection, schedule: Q01DX005 (ip), vehicle: saline); 98 % of control (dose: 200.0 mg/kg/injection, schedule: Q01DX005 (ip), vehicle: saline).

Regarding `Fc1ccc(C=C2c3ccccc3-c3ccccc32)cc1`, the T/C runs as follows: (dose: 25.0 mg/kg/injection, schedule: Q04DX002 (ip), vehicle: gum acacia) 109 % of control; (dose: 50.0 mg/kg/injection, schedule: Q04DX002 (ip), vehicle: gum acacia) 92 % of control; (dose: 100.0 mg/kg/injection, schedule: Q04DX002 (ip), vehicle: gum acacia) 92 % of control.

For `O=P(CCl)(Oc1ccc(Cl)cc1)Oc1ccc(Cl)cc1`, the T/C is 103 % of control under setting [1] and 95 % of control under setting [2].

Consider `CCOC1c2cc(OC)ccc2C(=O)CCN1S(=O)(=O)c1ccc(C)cc1` (centres undefined), for which the T/C under setting [3] is 92 % of control, the T/C under setting [4] was 91 % of control and the T/C under setting [5] is 96 % of control.

Take `CC(NC(=O)NCCCl)c1ccsc1` (centres undefined): the T/C is 111 % of control (dose: 2.5 mg/kg/injection, schedule: Q01DX009 (ip), vehicle: Klucel (hydroxypropylcellulose) (HPC)); 98 % of control (dose: 5.0 mg/kg/injection, schedule: Q01DX009 (ip), vehicle: Klucel (hydroxypropylcellulose) (HPC)); 94 % of control and 92 % of control (dose: 10.0 mg/kg/injection, schedule: Q01DX009 (ip), vehicle: Klucel (hydroxypropylcellulose) (HPC)).

`COc1ccc(NC(=O)Nc2ccccc2Cl)c(Cl)c1`: the T/C runs as follows: under setting [6], 90 % of control; (dose: 200.0 mg/kg/injection, schedule: Q04DX002 (ip), vehicle: saline with Tween-80) 87 % of control; (dose: 400.0 mg/kg/injection, schedule: Q04DX002 (ip), vehicle: saline with Tween-80) 87 % of control.

As to `O=C(NCCCl)NC1C(O)OC(CO)C(O)C1O` (centres undefined), the T/C reads like this: under setting [7], 95 % of control; under setting [8], 110 % of control; under setting [1], 97 % of control; under setting [9], 105 % of control; under setting [2], 98 % of control; under setting [10], 100 % of control. In addition, the T/C under setting [11] is 96 % of control and the T/C (dose: 400.0 mg/kg/injection, schedule: Q01DX009 (ip), vehicle: water) was 97 % of control.

With `CC(O)C1CCCNC1` (centres undefined), the T/C runs as follows: under setting [12], 108 % of control; (dose: 200.0 mg/kg/injection, schedule: Q04DX003 (ip), vehicle: saline) 97 % of control.

For `Cc1ccccc1N1OS(=O)(=O)CC1(C#N)c1ccccc1` (centres undefined), the T/C reads like this: under setting [13], 98 % of control; under setting [14], 102 % of control; (dose: 400.0 mg/kg/injection, schedule: Q01DX009 (ip), vehicle: saline with Tween-80) 96 % of control.

In the case of `Brc1cnn2c1NCC2`, the T/C runs as follows: (dose: 12.5 mg/kg/injection, schedule: Q01DX009 (ip), vehicle: water) 100 % of control; (dose: 12.5 mg/kg/injection, schedule: Q04DX003 (ip), vehicle: water) 95 % of control; under setting [7], 101 % of control; (dose: 25.0 mg/kg/injection, schedule: Q04DX003 (ip), vehicle: water) 100 % of control; under setting [8], 97 % of control; (dose: 50.0 mg/kg/injection, schedule: Q04DX003 (ip), vehicle: water) 101 % of control. In addition, the T/C under setting [9] was 97 % of control and 89 % of control; the T/C under setting [10] is 93 % of control.

`CCC(NC(=O)OCc1ccccc1)C(=O)NC(C(=O)OCc1ccccc1)C(C)CC` (centres undefined) (Cbz-[Abu]-Ile-OBn; configuration not given here): the T/C reads like this: under setting [15], 92 % of control; under setting [16], 92 % of control; (dose: 400.0 mg/kg/injection, schedule: Q04DX003 (ip), vehicle: saline with Tween-80) 93 % of control.

In the case of `C=CCN(C=O)CC=C`, under setting [17], the T/C was 101 % of control.

As to `O=c1[nH]nc(S(=O)(=O)N2CCCC2)c(=O)[nH]1`, the T/C (dose: 100.0 mg/kg/injection, schedule: Q01DX001 (ip), vehicle: carboxymethylcellulose (CMC)) was 98 % of control; the T/C (dose: 200.0 mg/kg/injection, schedule: Q01DX001 (ip), vehicle: carboxymethylcellulose (CMC)) was 98 % of control; the T/C (dose: 400.0 mg/kg/injection, schedule: Q01DX001 (ip), vehicle: carboxymethylcellulose (CMC)) was 93 % of control.

As for `COc1ccc(N=C(c2ccccc2)c2ccc([N+](=O)[O-])cc2)cc1`, the T/C (dose: 100.0 mg/kg/injection, schedule: Q01DX009 (ip), vehicle: Klucel (hydroxypropylcellulose) (HPC)) was 91 % of control; the T/C under setting [3] was 93 % of control; the T/C (dose: 200.0 mg/kg/injection, schedule: Q01DX009 (ip), vehicle: Klucel (hydroxypropylcellulose) (HPC)) was 101 % of control; the T/C under setting [4] is 98 % of control; the T/C (dose: 400.0 mg/kg/injection, schedule: Q01DX009 (ip), vehicle: Klucel (hydroxypropylcellulose) (HPC)) is 98 % of control; the T/C under setting [5] is 98 % of control.

Turning to `c1ccc2c(c1)NC1CCCCC21` (centres undefined), the T/C is 90 % of control (dose: 100.0 mg/kg/injection, schedule: Q01DX001 (ip), vehicle: Klucel (hydroxypropylcellulose) (HPC)); 97 % of control (dose: 200.0 mg/kg/injection, schedule: Q01DX001 (ip), vehicle: Klucel (hydroxypropylcellulose) (HPC)); 93 % of control (dose: 400.0 mg/kg/injection, schedule: Q01DX001 (ip), vehicle: Klucel (hydroxypropylcellulose) (HPC)).

With `Nc1n[nH]c(=O)[nH]1`, the T/C (dose: 44.0 mg/kg/injection, schedule: Q03HX024 (ip), vehicle: saline) is 108 % of control; the T/C (dose: 67.0 mg/kg/injection, schedule: Q03HX024 (ip), vehicle: saline) was 107 % of control; the T/C under setting [17] was 115 % of control; the T/C (dose: 100.0 mg/kg/injection, schedule: Q03HX024 (ip), vehicle: saline) is 112 % of control; the T/C (dose: 177.0 mg/kg/injection, schedule: Q01DX009 (ip), vehicle: saline) is 120 % of control; the T/C (dose: 200.0 mg/kg/injection, schedule: Q01DX009 (ip), vehicle: saline) is 121 % of control. In addition, the T/C runs as follows: (dose: 225.0 mg/kg/injection, schedule: Q03HX024 (ip), vehicle: saline) 153 % of control; (dose: 266.0 mg/kg/injection, schedule: Q01DX009 (ip), vehicle: saline) 180 % of control; (dose: 266.0 mg/kg/injection, schedule: Q04DX003 (ip), vehicle: saline) 104 % of control; (dose: 400.0 mg/kg/injection, schedule: Q01DX009 (ip), vehicle: saline) 185 % of control; (dose: 400.0 mg/kg/injection, schedule: Q04DX003 (ip), vehicle: saline) 113 % of control; (dose: 600.0 mg/kg/injection, schedule: Q01DX009 (ip), vehicle: saline) 164 % of control and 186 % of control. Besides, the T/C (dose: 600.0 mg/kg/injection, schedule: Q04DX003 (ip), vehicle: saline) is 118 % of control.

As to `O=C(Nc1ccc(Br)c2c(NC(=O)c3ccccc3)ccc(Br)c12)c1ccccc1`, the T/C was 110 % of control (dose: 50.0 mg/kg/injection, schedule: Q01DX001 (ip), vehicle: saline); 101 % of control under setting [1]; 95 % of control under setting [2]; 98 % of control under setting [11].

For the compound `C=C(C)C1CCC2(C=O)CCC3(C)C(CCC4C5(C)CCC(OC6CCCCO6)C(C)(C)C5CCC43C)C12` (centres undefined), the T/C is, setting by setting: (dose: 25.0 mg/kg/injection, schedule: Q04DX002 (ip), vehicle: saline with Tween-80) 90 % of control; under setting [6], 90 % of control.

With `CN(C)P1(=O)OCC(C(C)(C)C)CO1` (centres undefined), under setting [12], the T/C was 112 % of control.

For the compound `CCN(CC)c1ccc(NC(=O)NC(C)C)cc1`, the T/C runs as follows: (dose: 50.0 mg/kg/injection, schedule: Q01DX009 (ip), vehicle: saline with Tween-80) 101 % of control; under setting [13], 108 % of control; under setting [15], 105 % of control; under setting [14], 97 % of control; under setting [16], 103 % of control.
